Values joined by “and” are separate entries in the source; they are usually repeats but may differ in a detail not shown here. Equal values may be shown once. “Also recorded” adds a separate entry of the source.
Assays:
rat PFTase = target: T1, rat PFTase (Rattus norvegicus, UniProt Q02293+Q04631); assay: Inhibition of farnesyl transferase (fluorescence assay); type: biochemical; conditions: mean ± SD of three independent experiments
T1 construct: purchased Jena Biosciences
Protocol: The assay was carried out in 384-well microplates with a final volume of 20 μl by the method modified from the previous report (Long et al., 2009). Briefly, 10 nM of rat PFTase (Jena Biosciences, Jena, Germany) was incubated with the tested compound or DMSO (1%) for 15 min, and then the mixture was added in a solution (50 mM Tris-HCl, pH 7.5, 5 mM MgCl2, 5 mM DTT, 0.1 mM ZnCl2, 0.2% octyl-β-D-glucopyranoside (Sigma, St. Louis, Mo.), 10 μM PFTase substrate dansyl-Gly-Cys-Val-Leu-Ser-OH, and 10 μM farnesyl pyrophosphate (Sigma, St. Louis, Mo.)) to initiate the reaction. The reaction was incubated at 37° C. for 30 min, and the fluorescence was detected by a M5 plate reader (Molecular Devices, CA, USA) at 340 nm excitation and 505 nm emission.

macrophages [1] = assay: Morphology of macrophages (photographs, Liu's staining); type: cell-based, human
Protocol: (§1) Mononuclear cells (MNCs) were separated from the peripheral blood of healthy donors obtained with written consent by use of Ficoll-Hypaque density centrifugation, followed by positive selection with magnetic anti-CD14 microbeads.
(§2) The isolated CD14^+ cells were cultivated in Minimum Essential Medium (MEM medium) supplemented with 10% fetal bovine serum (FBS), 100 ng/ml granulocyte-macrophage colony-stimulating factor (GM-CSF, Gentaur), and 50 ng/ml interleukin-4 (IL-4, R&D), and kept in an environment of 37° C. with 5% CO2/95% air.
(§3) To evaluate the effects of the present compound on dendritic cells, the CD14^+ cells were respectively treated with 10 μM of test compound (i.e., Mib-5, Mib-6, Mib-7, Mib-8, Mib-9, and Mib-10) on day 1. Then, on day 3, the cultured medium in each well was replenished by adding half the volume of the cultured medium containing the same treatment as indicated above. Then, on day 6, a cytokine cocktail containing IL-1, IL-6, and tumor necrosis factor-α (TNF-α) was added to induce maturation. On day 7, the differentiated dendritic cells were collected and subjected to further assays, including viability assay, morphology observation, and cell marker staining.
(§4) As to the effects of the present compound on macrophages, the CD14^+ cells were cultivated and treated as indicated above except the addition of cytokine cocktail on day 6. The macrophages were collected on day 6 and subjected to further assays, including viability assay, trypan blue exclusion test, morphology observation, cell marker staining, and phagocytotic activity analysis.
(§5) Cells were transferred to a glass coverslide and covered with solution A (0.5 g of methylene blue and 1.7 g of Eosin yellow dissolved in 1,000 ml of ethanol). After 45 seconds, solution B (1.3 g of azure, 1.4 g of methylene blue, 23.38 g of Na2HPO4, 6.5 g of KH2PO4, dissolved in 1,000 ml of distilled water) was added in the proportion of 2 parts of B to 1 part of A. Mixed the solutions well by blowing the surface. The slide was left standing for 90 seconds and then washed off the staining solution rapidly by running water. The morphology of stained cells was then examined under microscope.

macrophages [2] = assay: Trypan blue exclusion test on macrophages; type: cell-based; conditions: trypan blue analysis, FIG. 2
Protocol: as §1, §2, §3, §4
(§6) The dye exclusion test is used to determine the number of viable cells present in a cell suspension. […] In this test, the cells were first treated with a test compound (i.e., Mib-5, 6, 7, 8, 9 or 10) for a certain period of time (e.g., 72 hours), then the cells were harvested and re-suspended in suitable buffer solution. The cell suspension was then mixed with trypan blue dye and then visually examined to determine whether cells had taken up or excluded the dye. A viable cell will have a clear cytoplasm, whereas a nonviable cell will have a blue cytoplasm. The concentration required to reduce viability by 50% (IC50) after 72 hours was extrapolated from the dose-response curves by different concentrations of the test compound using a second-order polynomial regression model and analyzing with SigmaPlot Software (Systat Software Inc., San Jose, Calif.).

M1 macrophages [3] = assay: Differentiation analysis, cell viability of M1 macrophages; type: cell-based, human
Protocol: (§7) M1 differentiation of freshly isolated CD14^+ cells was induced by the addition of lipopolysaccharide (LPS), while M2 differentiation of freshly isolated CD14^+ cells was induced by the addition of IL-4. Then, the present compounds (e.g., Mib-5, 6, 7, 8, 9, or 10) were added at the indicated dosages. 6 days later, the population of the differentiated macrophages were then determined by cell viability analysis. The cell viability was measured by cell counting kit-8 (CCK-8, Sigma). The half maximal inhibitory concentrations (IC50) of the test compounds on macrophages or dendritic cells were calculated.

M2 macrophages [4] = assay: Differentiation analysis, cell viability of M2 macrophages; type: cell-based, human
Protocol: as §7

macrophages [5] = assay: Cell marker expression on macrophages (total), flow cytometry; type: cell-based, human
Protocol: as §1, §2, §3, §4
(§8) The expression of various types of cell markers, such as CD14, CD206, and CD80 expressed on the surface of macrophages, and CD1a, CD14, CD83, and HLA-DR expressed on the dendritic cells, were respectively detected by fluorescein isothiocyanate (FITC) and phycoerythrin (PE)-conjugated monoclonal antibodies in FACS caliber flowcytometer. Monoclonal antibodies used in this examples included anti-CD14 (IgG-FITC), anti-CD206 (IgG-FITC), anti-CD80-PE, anti-CD1a-PE, anti-CD83-PE and anti-human leukocyte antigen (HLA)-DR-PE. Results were analyzed by CellQuest software.

M1 macrophages [6] = assay: Cell marker expression on M1 macrophages, flow cytometry; type: cell-based, human
Protocol: as §7, with “analysis.” for “analysis. The cell viability was measured by cell counting kit-8 (CCK-8, Sigma). The half maximal inhibitory concentrations (IC50) of the test compounds on macrophages or dendritic cells were calculated.”
as §8

M2 macrophages [7] = assay: Cell marker expression on M2 macrophages, flow cytometry; type: cell-based, human
Protocol: as §7, with “analysis.” for “analysis. The cell viability was measured by cell counting kit-8 (CCK-8, Sigma). The half maximal inhibitory concentrations (IC50) of the test compounds on macrophages or dendritic cells were calculated.”
as §8

macrophages [8] = assay: Phagocytosis assay with fluorescent latex beads; type: cell-based, human; conditions: M1 and/or M2 populations, FIG. 6
Protocol: as §4
The phagocytic activity of macrophages was measured by using flow cytometric analysis. The green fluorescent latex beads (carboxylate-modified beads with diameter 2 μm) were suspended in PBS solution and added into macrophage culture for 2 hours with vortexa at 37° C. The macrophages were subjected to flow cytometry for measurement of fluorescent intensity

dendritic cells [9] = assay: Trypan blue exclusion analysis of dendritic cells; type: cell-based, human; conditions: 10 μM, seven days, FIG. 7
Protocol: as §1, §2, §3, §6
(§9) In this example, the effects of the present compounds on dendritic cells were investigated. Briefly, the dendritic cells were respectively treated with 10 μM of Mib-5, Mib-6, Mib-7, Mib-8, or Mib-10. Seven days later, the cells were harvested and subjected to analysis of morphology observation, cell viability, and/or cell marker expression.

dendritic cells [10] = assay: Morphology of dendritic cells by Liu's staining; type: cell-based, human; conditions: 10 μM, seven days, FIG. 8
Protocol: as §1, §2, §3, §5, §9

dendritic cells [11] = assay: Cell marker expression on dendritic cells, flow cytometry; type: cell-based, human; conditions: 10 μM
Protocol: as §1, §2, §3, §8, §9

For CSCC[C@H](NC(=O)c1ccc(NC(=O)[C@@H](N)CS)cc1)C(=O)O [FTase Inhibitor II, reference compound], the IC50 (rat PFTase) was 0.13 ± 0.03 µM.
COC1=CC(=O)[C@@]2(c3cc(=O)c4c(O)cc(OC)cc4o3)[C@H](C[C@]3(C)[C@@H](C(=O)O)CC=C4[C@H]3CCCC4(C)C)C(C)=CC[C@H]2C1=O [Mib-6] was tested, and the IC50 (rat PFTase) was < 10 µM and 4.97 µM, the “morphology and adhesion of treated macrophages” value (macrophages [1]; 10 μM, FIG. 1 panel B) was “became rounded up, and were less adhesive” and the “morphology of cells by Liu's staining compared with control cells” value (macrophages [1]; FIG. 1 panel C) was “not significantly affected”. For the same compound, the “cell viability / cytotoxicity toward macrophages” value (macrophages [2]) was “slight toxicity; also recorded: no significant cytotoxicity”, the “Cell viability of M1 macrophages” value (M1 macrophages [3]; LPS-induced M1 differentiation, 6 days, control 100%) was 57.2% and the “change in M1 population of macrophages compared with control” value (M1 macrophages [3]; Table 4) was “significant reduction”. The “Cell viability of M2 macrophages” value (M2 macrophages [4]; IL-4-induced M2 differentiation, 6 days, control 100%) was 90.6%, the “change in M2 population of macrophages compared with control” value (M2 macrophages [4]; Table 4) was “slight decrease” and the “total expressed level of CD14” value (macrophages [5]; FIG. 3) was “not affected”. For the same compound, the “level of CD206” value (macrophages [5]; FIG. 5) was “increase”, the “total level of CD80” value (macrophages [5]; compared with the control) was “significantly reduced” and the “CD14: M1 population after treatment” value (M1 macrophages [6]; Table 5) was “remained relatively unchanged”. For the same compound, the “CD80: change in M1 population” value (M1 macrophages [6]; Table 6) was “reduction”, the “CD206: change in M1” value (M1 macrophages [6]; Table 7) was “significant decrease” and the “CD206 expression on M1 macrophages” value (M1 macrophages [6]; control 14.27%) was 4.52%. For the same compound, the “CD80 expression on M1 macrophages” value (M1 macrophages [6]; control 71.34%) was 6.59%, the “CD14 expression on M1 macrophages” value (M1 macrophages [6]; control 99.83%) was 86.43% and the “CD14: M2 population after treatment” value (M2 macrophages [7]; Table 5) was “significant decrease”. For the same compound, the “CD206: change in M2” value (M2 macrophages [7]; Table 7) was “increase”, the “CD80 expression on M2 macrophages” value (M2 macrophages [7]; control 47.64%) was 41.4% and the “CD14 expression on M2 macrophages” value (M2 macrophages [7]; control 55.66%) was 91.25%. The “CD206 expression on M2 macrophages” value (M2 macrophages [7]; control 74.49%) was 77.78%, the “phagocytic activity compared with control” value (macrophages [8]) was “not” and the “levels of viable dendritic cells” value (dendritic cells [9]) was “reduced”. The “dendritic cell morphology compared with control group” value (dendritic cells [10]) was “cell death reflected in morphology changes, and less dendritic process”, the “expression of CD1a, differentiation marker of dendritic cells” value (dendritic cells [11]; FIG. 9) was “inhibited” and the “expression of CD83, maturation marker of dendritic cells” value (dendritic cells [11]; FIG. 10) was “inhibited”.

From US10745370B2, “Farnesyl transferase inhibitors and uses thereof” (MACKAY MEMORIAL HOSPITAL, priority 2016, dated 2020)
